Reference: patent publication US20110281852A1 (priority 2010, published 2011)

Assays:
GATA-3 = test: Immunoblot, GATA-3 protein in epididymal fat of FD mice; format: in vivo, mouse
Method: RNA and protein purification and quantification from epididymal fat tissues: RNA and protein was isolated from 60 mg of epididymal fat tissues with Trizol (Invitrogen, Carlsbad, Calif., USA) following the protocol recommended by the manufacturers. RNA was dissolved in pure water and quantified at 260/280 nm, and sample integrity was checked by 1.5% agarose gel electrophoresis. Protein concentration was determined using the Micro BCA Protein Assay Kit (Fisher Scientific, Pittsburgh, Pa., USA) according to the manufacturer's instructions.
Immunoblot Analysis: Protein expression of GATA-2, GATA-3, PPARγ and C/EBPα in the control of β-actin was assessed by Western Blot. Protein samples from the same group were homogenized as previously reported (Hu and Davies, Phytomedicine (2009) 16:864-873). Protein (25 μg) was separated by polyacrylamide gel electrophoresis using the BioRad Electrophoretic System (60 V for 1 h followed by 90 V for 5 h). The proteins were then transferred to nitrocellulose membranes at 35 V overnight. The membrane was blocked for 1 h at room temperature in 5% nonfat milk in Tris-buffered saline (TBS), then washed with Tween-20-TBS (TTBS, 0.1% Tween-20) three times (15 min, 5 min, 5 min), followed by incubation with primary antibodies mouse GATA-2, GATA-3 (dilution 1:200), PPARγ, C/EBPα and β-actin (dilution 1:500) at room temperature for 2 h (all antibodies were purchased from Santa Cruz Biotechnology, Santa Cruz, Calif., USA). The membrane was rinsed three times (15 min, 5 min, 5 min), then incubated at room temperature for 1 h with horseradish peroxidase-conjugated second antibody (1:10,000). The membrane was then incubated in ECL reagent (GE Healthcare, Piscataway, N.J., USA) for 1 min. Protein was visualized using the UVP image analysis system (UVP, Upland, Calif., USA).

in vitro = settings: mouse, 3T3-L1 cells during proliferation
Method: Culture medium was removed at 24, 48 and 72 hrs and MTT (0.5 mg/ml in pure DMEM, 50 μl/well) was added.

3T3-L1 cells = test: Oil-Red-O staining and quantification, clozapine/risperidone induced adipogenesis in 3T3-L1 (Example 2); format: cell-based, mouse; settings: 8 μM berberine, 8 days
Method: Detailed protocol was described as our previous report (Hu et al., Phytomedicine (2009) 16(9):864-873).
Oil-Red-O staining and quantification: Oil-Red-O Staining and its quantification were performed as previously reported (Liu et al., Sinica (2004) 25:1052-1057). Briefly, medium was removed and cells were washed with PBS twice, fixed with 3.7% formalin at room temperature for 30 min, then rinsed with pure water, added 60% isopropanol and incubated for 5 minutes, then moved out isopropanol and stained cells with diluted Oil-Red-O solution (Oil-Red-O store solution (3 mg/ml in pure isopropanol): water=3:2) at room temperature for 10 min. Then the diluted Oil-Red-O solution was removed and cells were washed 3 times with pure water. Images were obtained using an Olympus IX70 inverted microscope equipped for phase-contrast microscopy (Olympus, Tokyo, Japan). After staining, the cells were washed twice with 70% ethanol to remove excess stain. Stained oil droplets in the cells were dissolved in isopropanol containing 4% Nonidet-P40 (Fisher Scientific, Pittsburgh, Pa., USA) shaking in 37° C. at speed 100 rpm for 1 hour, and OD values were measured at an absorbance of 490 nm and then normalized with control group.

## COc1ccc2cc3[n+](cc2c1OC)CCc1cc2c(cc1-3)OCO2.[Cl-] [berberine, Berberine (Chloride Form)]
GATA-3; 0.75 mg/kg/day
  GATA-3 protein expression increased to: 2.2 fold
GATA-3; 1.5 mg/kg/day
  GATA-3 protein expression increased to: 2.5 fold
GATA-3; 3 mg/kg/day
  GATA-3 protein expression increased to: 6.9 fold
In vitro
  cytotoxicity at 1 day, 8 μM: 13.2%
  cytotoxicity at 2 days, 8 μM: 13.8%
  cytotoxicity at 3 days, 8 μM: 18.6%
3T3-L1 cells; 15 μM clozapine group
  reduction in lipid content vs no berberine treated group: 78.5%
3T3-L1 cells; 25 μM risperidone group
  reduction in lipid content vs no berberine treated group: 78.7%
3T3-L1 cells; 30 μM clozapine group
  reduction in lipid content vs no berberine treated group: 73.2%
3T3-L1 cells; 50 μM risperidone group
  reduction in lipid content vs no berberine treated group: 81%
3T3-L1 cells; control group (clozapine series)
  reduction in lipid content vs no berberine treated group: 70%
3T3-L1 cells; control group (risperidone series)
  reduction in lipid content vs no berberine treated group: 72%
